Data reported in publication PMC11167047 (Cell Death Discovery, 2024).

Tests used:
Assay in all cases: kinome screen (33PanQinase)
Assay type in all cases: biochemical
MKK7 = target: T1, MKK7 (Homo sapiens, UniProt O14733)
T1 construct: purchased Reaction Biology Europe GmbH (formerly ProQinase)
T1 sequence (O14733 1-419): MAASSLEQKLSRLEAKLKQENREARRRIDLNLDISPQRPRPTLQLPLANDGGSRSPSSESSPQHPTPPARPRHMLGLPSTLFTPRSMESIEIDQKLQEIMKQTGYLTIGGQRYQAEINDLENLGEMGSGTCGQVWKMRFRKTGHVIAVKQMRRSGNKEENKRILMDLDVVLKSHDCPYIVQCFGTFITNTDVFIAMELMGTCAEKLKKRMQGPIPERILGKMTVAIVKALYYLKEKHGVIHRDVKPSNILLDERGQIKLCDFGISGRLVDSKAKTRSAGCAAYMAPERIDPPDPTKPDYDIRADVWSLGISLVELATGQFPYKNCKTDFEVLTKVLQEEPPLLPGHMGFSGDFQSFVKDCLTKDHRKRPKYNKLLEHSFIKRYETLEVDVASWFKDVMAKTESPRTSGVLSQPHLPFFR
Protocol: (§1) The Kinome Screening was performed by Reaction Biology Europe GmbH (http://reactionbiology.com; Freiburg i. Br., Germany).

CK2α1 = target: T2, CK2α1 (Homo sapiens, UniProt P68400)
T2 construct: purchased Reaction Biology Europe GmbH (formerly ProQinase)
Protocol: as §1

INSR = target: T3, INSR (Homo sapiens, UniProt P06213)
T3 construct: purchased Reaction Biology Europe GmbH (formerly ProQinase)
Protocol: as §1

CDK2/CycE1 = target: T4, CDK2/CycE1 (Homo sapiens, UniProt P24941)
T4 construct: purchased Reaction Biology Europe GmbH (formerly ProQinase)
Protocol: as §1

AuroraA = target: T5, AuroraA (Homo sapiens, UniProt O14965)
T5 construct: purchased Reaction Biology Europe GmbH (formerly ProQinase)
T5 sequence (O14965 1-403): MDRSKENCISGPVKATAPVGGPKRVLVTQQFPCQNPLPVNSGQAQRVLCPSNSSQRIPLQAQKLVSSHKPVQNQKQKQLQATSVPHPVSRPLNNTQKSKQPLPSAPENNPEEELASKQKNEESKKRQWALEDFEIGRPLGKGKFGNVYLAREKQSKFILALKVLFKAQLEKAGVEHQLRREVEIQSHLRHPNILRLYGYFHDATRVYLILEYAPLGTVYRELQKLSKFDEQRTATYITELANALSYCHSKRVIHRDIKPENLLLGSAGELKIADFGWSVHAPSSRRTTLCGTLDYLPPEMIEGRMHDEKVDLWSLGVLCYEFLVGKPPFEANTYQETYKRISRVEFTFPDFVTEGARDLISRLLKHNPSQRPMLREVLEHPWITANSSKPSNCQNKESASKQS
Protocol: as §1

STK23 = target: T6, STK23 (Homo sapiens, UniProt Q9UPE1)
T6 construct: purchased Reaction Biology Europe GmbH (formerly ProQinase)
Protocol: as §1

MEK5 = target: T7, MEK5 (Homo sapiens, UniProt Q13163)
T7 construct: purchased Reaction Biology Europe GmbH (formerly ProQinase)
T7 sequence (Q13163 1-448): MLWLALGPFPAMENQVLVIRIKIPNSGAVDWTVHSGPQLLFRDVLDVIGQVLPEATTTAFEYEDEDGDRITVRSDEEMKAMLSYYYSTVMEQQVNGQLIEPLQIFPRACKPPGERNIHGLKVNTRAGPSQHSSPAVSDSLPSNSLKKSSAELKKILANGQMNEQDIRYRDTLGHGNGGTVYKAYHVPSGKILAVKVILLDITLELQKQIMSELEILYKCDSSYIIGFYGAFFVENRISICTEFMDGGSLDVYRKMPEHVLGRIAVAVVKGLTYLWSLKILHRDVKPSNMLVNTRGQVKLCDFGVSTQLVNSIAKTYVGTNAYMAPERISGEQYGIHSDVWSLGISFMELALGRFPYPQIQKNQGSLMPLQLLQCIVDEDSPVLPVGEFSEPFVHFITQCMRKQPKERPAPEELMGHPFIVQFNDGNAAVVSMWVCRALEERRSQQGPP
Protocol: as §1

PAK3 = target: T8, PAK3 (Homo sapiens, UniProt O75914)
T8 construct: purchased Reaction Biology Europe GmbH (formerly ProQinase)
Protocol: as §1

PKCϴ = target: T9, PKCϴ (Homo sapiens, UniProt Q04759)
T9 construct: purchased Reaction Biology Europe GmbH (formerly ProQinase)
Protocol: as §1

NEK3 = target: T10, NEK3 (Homo sapiens, UniProt P51956)
T10 construct: purchased Reaction Biology Europe GmbH (formerly ProQinase)
T10 sequence (P51956 1-506): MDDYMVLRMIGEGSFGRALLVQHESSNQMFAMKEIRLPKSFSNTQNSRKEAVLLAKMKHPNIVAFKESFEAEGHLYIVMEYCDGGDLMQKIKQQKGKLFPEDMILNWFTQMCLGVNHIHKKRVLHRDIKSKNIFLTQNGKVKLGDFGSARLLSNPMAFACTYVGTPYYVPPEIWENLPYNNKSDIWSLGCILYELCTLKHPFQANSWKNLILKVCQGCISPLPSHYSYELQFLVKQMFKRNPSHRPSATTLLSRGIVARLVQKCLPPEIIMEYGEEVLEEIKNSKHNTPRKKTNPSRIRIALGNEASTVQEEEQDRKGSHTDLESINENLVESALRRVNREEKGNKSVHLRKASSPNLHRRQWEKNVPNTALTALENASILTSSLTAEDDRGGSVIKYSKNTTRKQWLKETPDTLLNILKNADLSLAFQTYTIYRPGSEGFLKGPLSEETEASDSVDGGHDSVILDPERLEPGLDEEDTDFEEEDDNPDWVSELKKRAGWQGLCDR
Protocol: as §1

MEK1 = target: T11, MEK1 (Homo sapiens, UniProt Q02750)
T11 construct: purchased Reaction Biology Europe GmbH (formerly ProQinase)
Protocol: as §1

T8 sequence (O75914 whole entry): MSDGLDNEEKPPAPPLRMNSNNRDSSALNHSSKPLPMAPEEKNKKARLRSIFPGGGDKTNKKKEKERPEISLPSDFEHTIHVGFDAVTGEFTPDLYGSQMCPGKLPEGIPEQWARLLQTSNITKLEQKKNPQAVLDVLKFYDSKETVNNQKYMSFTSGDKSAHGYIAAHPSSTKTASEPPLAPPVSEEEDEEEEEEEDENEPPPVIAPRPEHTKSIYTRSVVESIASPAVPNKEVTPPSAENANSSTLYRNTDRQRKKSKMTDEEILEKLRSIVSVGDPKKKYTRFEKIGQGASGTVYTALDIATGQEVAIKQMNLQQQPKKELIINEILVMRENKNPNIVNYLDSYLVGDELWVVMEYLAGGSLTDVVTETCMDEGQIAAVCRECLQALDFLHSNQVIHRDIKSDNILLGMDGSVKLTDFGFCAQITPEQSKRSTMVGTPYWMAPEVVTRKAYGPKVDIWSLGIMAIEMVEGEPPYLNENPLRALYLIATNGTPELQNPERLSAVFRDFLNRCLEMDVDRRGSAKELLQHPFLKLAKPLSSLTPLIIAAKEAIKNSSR
T6 sequence (Q9UPE1 whole entry): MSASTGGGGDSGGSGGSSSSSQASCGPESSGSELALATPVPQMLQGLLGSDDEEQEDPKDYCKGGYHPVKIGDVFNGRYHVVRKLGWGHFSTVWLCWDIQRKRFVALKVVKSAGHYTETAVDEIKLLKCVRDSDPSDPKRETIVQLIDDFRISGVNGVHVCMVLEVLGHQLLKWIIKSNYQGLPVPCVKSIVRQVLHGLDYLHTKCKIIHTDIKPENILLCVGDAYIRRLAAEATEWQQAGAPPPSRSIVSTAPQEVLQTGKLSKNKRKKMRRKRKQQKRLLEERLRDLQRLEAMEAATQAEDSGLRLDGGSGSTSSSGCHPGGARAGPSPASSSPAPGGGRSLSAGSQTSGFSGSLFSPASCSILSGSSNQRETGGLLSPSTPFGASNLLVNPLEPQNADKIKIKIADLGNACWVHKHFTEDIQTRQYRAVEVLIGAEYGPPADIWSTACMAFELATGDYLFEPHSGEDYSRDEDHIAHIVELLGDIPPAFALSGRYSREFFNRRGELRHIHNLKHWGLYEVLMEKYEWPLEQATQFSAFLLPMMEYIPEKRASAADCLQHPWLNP
T2 sequence (P68400 whole entry): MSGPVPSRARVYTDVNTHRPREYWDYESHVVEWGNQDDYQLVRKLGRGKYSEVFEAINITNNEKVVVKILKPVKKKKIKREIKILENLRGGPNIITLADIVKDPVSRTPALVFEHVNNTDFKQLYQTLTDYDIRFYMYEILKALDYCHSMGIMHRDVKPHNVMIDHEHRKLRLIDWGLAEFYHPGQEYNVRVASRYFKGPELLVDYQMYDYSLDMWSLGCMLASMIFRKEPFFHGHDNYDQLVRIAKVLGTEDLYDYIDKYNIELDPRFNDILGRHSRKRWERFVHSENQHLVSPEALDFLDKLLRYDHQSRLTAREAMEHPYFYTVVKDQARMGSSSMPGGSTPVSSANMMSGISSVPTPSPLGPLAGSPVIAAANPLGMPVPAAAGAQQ
T3 sequence (P06213 28-1382): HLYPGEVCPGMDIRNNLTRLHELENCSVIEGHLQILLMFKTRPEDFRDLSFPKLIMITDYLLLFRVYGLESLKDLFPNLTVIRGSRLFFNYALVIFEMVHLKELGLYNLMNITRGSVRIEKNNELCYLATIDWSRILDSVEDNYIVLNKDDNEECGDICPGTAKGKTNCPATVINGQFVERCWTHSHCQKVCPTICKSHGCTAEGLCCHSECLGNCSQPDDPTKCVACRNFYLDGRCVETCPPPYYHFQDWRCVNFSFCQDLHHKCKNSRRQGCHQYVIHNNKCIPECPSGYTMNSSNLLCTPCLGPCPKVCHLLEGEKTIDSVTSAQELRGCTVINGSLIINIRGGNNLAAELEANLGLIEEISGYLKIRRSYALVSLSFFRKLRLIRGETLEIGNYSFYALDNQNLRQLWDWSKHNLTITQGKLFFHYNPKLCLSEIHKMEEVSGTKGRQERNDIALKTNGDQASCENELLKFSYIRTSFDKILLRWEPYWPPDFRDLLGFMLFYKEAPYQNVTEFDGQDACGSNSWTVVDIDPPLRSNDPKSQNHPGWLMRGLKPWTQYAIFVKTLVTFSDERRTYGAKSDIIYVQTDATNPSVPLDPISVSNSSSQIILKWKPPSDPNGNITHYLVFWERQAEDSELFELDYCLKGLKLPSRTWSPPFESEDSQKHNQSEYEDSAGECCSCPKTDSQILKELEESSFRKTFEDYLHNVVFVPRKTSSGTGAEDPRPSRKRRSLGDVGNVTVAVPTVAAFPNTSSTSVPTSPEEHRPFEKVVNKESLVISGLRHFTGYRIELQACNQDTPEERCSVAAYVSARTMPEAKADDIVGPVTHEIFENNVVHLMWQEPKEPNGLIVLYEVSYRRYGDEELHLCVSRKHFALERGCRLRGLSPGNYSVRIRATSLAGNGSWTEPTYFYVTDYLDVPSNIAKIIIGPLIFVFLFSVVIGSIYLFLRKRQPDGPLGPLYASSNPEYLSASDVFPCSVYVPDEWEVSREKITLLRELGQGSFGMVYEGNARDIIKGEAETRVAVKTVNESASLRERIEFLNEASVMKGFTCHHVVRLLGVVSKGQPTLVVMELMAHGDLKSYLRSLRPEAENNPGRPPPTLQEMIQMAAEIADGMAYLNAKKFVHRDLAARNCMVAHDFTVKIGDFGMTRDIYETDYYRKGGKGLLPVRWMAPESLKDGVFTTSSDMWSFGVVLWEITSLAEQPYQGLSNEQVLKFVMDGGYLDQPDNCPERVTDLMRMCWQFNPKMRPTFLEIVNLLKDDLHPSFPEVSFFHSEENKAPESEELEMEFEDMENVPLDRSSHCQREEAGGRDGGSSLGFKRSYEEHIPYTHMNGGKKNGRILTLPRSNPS
T9 sequence (Q04759 whole entry): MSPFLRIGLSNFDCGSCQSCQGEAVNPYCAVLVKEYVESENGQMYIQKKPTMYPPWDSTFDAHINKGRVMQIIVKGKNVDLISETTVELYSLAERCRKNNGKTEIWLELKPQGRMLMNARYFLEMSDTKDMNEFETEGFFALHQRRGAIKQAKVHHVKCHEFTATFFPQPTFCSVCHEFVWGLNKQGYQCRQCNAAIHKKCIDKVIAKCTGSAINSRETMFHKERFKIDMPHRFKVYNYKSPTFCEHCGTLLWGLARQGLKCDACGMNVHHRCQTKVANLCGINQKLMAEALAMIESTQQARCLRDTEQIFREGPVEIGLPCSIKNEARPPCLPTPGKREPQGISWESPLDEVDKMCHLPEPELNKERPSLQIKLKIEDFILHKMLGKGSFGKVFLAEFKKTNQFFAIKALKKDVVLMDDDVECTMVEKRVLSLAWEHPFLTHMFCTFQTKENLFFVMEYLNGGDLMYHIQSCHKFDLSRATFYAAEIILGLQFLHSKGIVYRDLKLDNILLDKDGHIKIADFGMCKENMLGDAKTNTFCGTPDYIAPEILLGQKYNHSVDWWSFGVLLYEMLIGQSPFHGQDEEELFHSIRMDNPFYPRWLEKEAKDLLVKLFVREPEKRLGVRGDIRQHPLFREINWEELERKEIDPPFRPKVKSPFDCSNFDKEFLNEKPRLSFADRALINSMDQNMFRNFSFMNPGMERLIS
T11 sequence (Q02750 whole entry): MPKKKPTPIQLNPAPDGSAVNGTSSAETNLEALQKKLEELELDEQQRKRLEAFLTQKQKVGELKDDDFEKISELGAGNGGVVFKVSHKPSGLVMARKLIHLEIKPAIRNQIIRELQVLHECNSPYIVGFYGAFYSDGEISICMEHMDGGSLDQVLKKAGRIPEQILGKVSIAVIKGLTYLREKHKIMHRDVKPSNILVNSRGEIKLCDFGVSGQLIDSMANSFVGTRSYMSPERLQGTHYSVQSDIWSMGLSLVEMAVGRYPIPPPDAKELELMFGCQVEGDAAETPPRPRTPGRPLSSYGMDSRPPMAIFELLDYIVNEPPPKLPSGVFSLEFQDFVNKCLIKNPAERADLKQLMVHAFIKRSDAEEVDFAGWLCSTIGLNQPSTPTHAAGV

Structure (SMILES) | residual kinase activity (MKK7; 0.3 µM) | residual kinase activity (CK2α1; 0.3 µM) | residual kinase activity (INSR; 0.3 µM) | residual kinase activity (CDK2/CycE1; 0.3 µM) | residual kinase activity (AuroraA; 0.3 µM) | residual kinase activity (STK23; 0.3 µM) | residual kinase activity (MEK5; 0.3 µM) | residual kinase activity (PAK3; 0.3 µM) | residual kinase activity (PKCϴ; 0.3 µM) | residual kinase activity (NEK3; 0.3 µM) | residual kinase activity (MEK1; 0.3 µM) | other results
COc1ccnc2[nH]cc(-c3cc(N)nc(N)c3)c12 [meriolin 16] | 88 % of control | 104 % of control | 91 % of control | 0 % of control | 107 % of control | 78 % of control | 31 % of control | 84 % of control | 7 % of control | 78 % of control | 102 % of control | residual kinase activity (MKK7; 0.03 µM): 96 % of control; residual kinase activity (CK2α1; 0.03 µM): 106 % of control; residual kinase activity (INSR; 0.03 µM): 96 % of control; residual kinase activity (CDK2/CycE1; 0.03 µM): 16 % of control; residual kinase activity (AuroraA; 0.03 µM): 109 % of control; residual kinase activity (STK23; 0.03 µM): 109 % of control; residual kinase activity (MEK5; 0.03 µM): 35 % of control; residual kinase activity (PAK3; 0.03 µM): 85 % of control; residual kinase activity (PKCϴ; 0.03 µM): 40 % of control; residual kinase activity (NEK3; 0.03 µM): 96 % of control; residual kinase activity (MEK1; 0.03 µM): 108 % of control
c1ccc(CNc2cc(-c3c[nH]c4ncccc34)ccn2)cc1 [meriolin 36] | 81 % of control | 99 % of control | 82 % of control | 1 % of control | 81 % of control | 95 % of control | 30 % of control | 85 % of control | 2 % of control | 94 % of control | 35 % of control | residual kinase activity (MKK7; 3 µM): 48 % of control; residual kinase activity (CK2α1; 3 µM): 53 % of control; residual kinase activity (INSR; 3 µM): 36 % of control; residual kinase activity (CDK2/CycE1; 3 µM): 1 % of control; residual kinase activity (AuroraA; 3 µM): 35 % of control; residual kinase activity (STK23; 3 µM): 88 % of control; residual kinase activity (MEK5; 3 µM): 12 % of control; residual kinase activity (PAK3; 3 µM): 40 % of control; residual kinase activity (PKCϴ; 3 µM): 1 % of control; residual kinase activity (NEK3; 3 µM): 79 % of control; residual kinase activity (MEK1; 3 µM): 6 % of control
